Legend:
[1] = Kinetic solubility of compound in PBS at pH 7.4 incubated for 24 hrs under shaking condition by UPLC-MS analysis; format: physicochemical; details: for Kinetic_solubility: buffer, pH 7.4, 24 h
[2] = in vitro; details: mouse, liver microsomes
[3] = target: DNA topoisomerase 2-alpha (Homo sapiens, UniProt P11388); assay: Inhibition of recombinant human topoisomerase 2alpha using supercoiled pBR322 DNA as substrate incubated for 60 mins by ethidium bromide dye based agarose gel electrophoresis method
DNA topoisomerase 2-alpha, sequence (P11388 whole entry): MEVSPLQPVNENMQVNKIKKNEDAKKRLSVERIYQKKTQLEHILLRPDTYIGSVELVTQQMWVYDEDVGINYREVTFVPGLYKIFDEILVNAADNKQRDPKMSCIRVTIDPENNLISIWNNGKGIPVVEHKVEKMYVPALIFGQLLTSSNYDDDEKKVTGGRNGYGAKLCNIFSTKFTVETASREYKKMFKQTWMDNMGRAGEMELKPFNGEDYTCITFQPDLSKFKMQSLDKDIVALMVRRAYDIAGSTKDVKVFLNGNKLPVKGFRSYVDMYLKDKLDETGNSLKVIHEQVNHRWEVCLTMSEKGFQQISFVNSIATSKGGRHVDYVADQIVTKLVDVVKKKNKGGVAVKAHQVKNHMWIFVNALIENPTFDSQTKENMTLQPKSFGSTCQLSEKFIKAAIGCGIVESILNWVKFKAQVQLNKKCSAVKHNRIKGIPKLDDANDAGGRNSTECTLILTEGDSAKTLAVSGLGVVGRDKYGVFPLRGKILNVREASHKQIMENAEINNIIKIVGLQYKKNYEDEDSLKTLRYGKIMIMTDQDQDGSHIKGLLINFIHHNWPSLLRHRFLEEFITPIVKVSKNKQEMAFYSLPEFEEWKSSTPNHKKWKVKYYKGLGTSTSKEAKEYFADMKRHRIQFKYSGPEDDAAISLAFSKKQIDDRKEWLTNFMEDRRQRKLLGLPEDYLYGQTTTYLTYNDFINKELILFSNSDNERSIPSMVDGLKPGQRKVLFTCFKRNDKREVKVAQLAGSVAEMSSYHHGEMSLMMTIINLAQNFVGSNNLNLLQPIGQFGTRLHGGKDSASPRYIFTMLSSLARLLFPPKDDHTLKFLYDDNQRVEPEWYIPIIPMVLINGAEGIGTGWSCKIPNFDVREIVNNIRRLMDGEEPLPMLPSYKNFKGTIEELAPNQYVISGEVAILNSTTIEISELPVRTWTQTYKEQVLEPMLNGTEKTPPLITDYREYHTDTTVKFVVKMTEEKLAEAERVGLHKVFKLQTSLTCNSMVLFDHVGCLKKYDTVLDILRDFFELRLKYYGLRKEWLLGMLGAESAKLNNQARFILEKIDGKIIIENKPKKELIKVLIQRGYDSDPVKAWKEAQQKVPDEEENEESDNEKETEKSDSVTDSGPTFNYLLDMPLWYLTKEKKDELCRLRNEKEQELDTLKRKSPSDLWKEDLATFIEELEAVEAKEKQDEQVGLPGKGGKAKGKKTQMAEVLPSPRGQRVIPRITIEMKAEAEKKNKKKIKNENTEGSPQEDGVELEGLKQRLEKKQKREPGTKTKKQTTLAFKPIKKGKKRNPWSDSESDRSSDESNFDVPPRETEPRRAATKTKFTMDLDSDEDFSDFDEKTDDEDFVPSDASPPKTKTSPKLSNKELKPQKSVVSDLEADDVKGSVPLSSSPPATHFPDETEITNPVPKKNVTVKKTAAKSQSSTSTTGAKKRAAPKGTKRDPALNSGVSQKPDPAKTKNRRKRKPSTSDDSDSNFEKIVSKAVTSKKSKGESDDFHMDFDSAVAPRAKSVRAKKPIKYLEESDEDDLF

SMILES | IC50 [3] | further results
NC1CCc2nc(-c3ccncc3)nc(Nc3cccc(F)c3)c2C1 (racemic) | – | Kinetic_solubility [1]: 126 µM
NC1CCc2nc(-c3cccnc3)nc(Nc3cccc(F)c3)c2C1 (centres undefined) | – | half-life at 1 h, 4.6 µM [2]: > 1 h; solubility kinetic at 24 h ([1]; PBS, pH 7.4, read-out: Kinetic_solubility): > 250 µM
NC1CCc2nc(-c3ccncc3)nc(Nc3ccc(F)cc3)c2C1 (centres undefined) | – | half-life at 1 h, 4.6 µM [2]: > 1 h; Kinetic_solubility [1]: > 250 µM
NC1CCc2nc(-c3ccccn3)nc(Nc3cccc(F)c3)c2C1 (centres undefined) | Not Active | –
COc1ccc(Nc2nc(-c3ccncc3)nc3c2CC(N)CC3)cc1 (centres undefined) | Not Active | –
COc1cccc(Nc2nc(-c3ccncc3)nc3c2CC(N)CC3)c1 (centres undefined) | – | half-life at 1 h, 4.6 µM [2]: > 1 h; Kinetic_solubility [1]: > 250 µM
NC1CCc2nc(-c3ccncc3)nc(Nc3ccccc3F)c2C1 (centres undefined) | Not Active | –
NC1CCc2nc(-c3ccncc3)nc(Nc3ccccc3)c2C1 (centres undefined) | Not Active | –
CN(c1cccc(F)c1)c1nc(-c2ccncc2)nc2c1CC(N)CC2 (centres undefined) | Not Active | –

Continued, in another order:

IC50 [3] | SMILES | further results
Not Active | Fc1cccc(Nc2nc(-c3ccncc3)nc3c2CCCC3)c1 | –
Not Active | CN(C)c1cccc(Nc2nc(-c3ccncc3)nc3c2CC(N)CC3)c1 (centres undefined) | –

Source: ChEMBL document CHEMBL4699583 (J Med Chem, 2020)
